US7709002B1, “Mutated ras peptides for generation of CD8+Cytotoxic T lymphocytes” (The United States of America as represented by the …, priority 1996, dated 2010)
Each block holds one substance with its values, some of them ahead of it.

What was measured:
[1] = test system: CD4+ T cell line of RAS patient 43; experiment: Lymphoproliferation (3H-thymidine uptake) of PBMC cultures / CD4+ T cell line of RAS patient 43; type: cell-based, human; settings: for Proliferation Response cpm(± SEM) / Proliferation Response SI (stimulation index): 4th IVS
[2] = test system: CD4+ T cell line of patient 29; experiment: Lymphoproliferation (3H-thymidine uptake) of PBMC cultures / CD4+ T cell line of patient 29; type: cell-based, human
From the text: In vitro stimulation (IVS) cycles for evaluation of CD4^+ T cell responses. IVS cycles were established to: (i) amplify detection of a low proliferative response, (ii) compare “pre-immune” to “post-immune” lymphocytes over a period to time for assessment of potential peptide-specific reactivity, and (iii) derive peptide-specific CD4^+ T cell lines in culture for detailed phenotypic and functional characterization. […]
Proliferation response. […] Cells were collected with a TOMTEC MACH II 96 harvester (Wallace, Inc., Gaithersburg, Md.) and incorporated radioactivity was measured by liquid scintillation spectroscopy (1205 Betaplate flat bed LS counter; Wallace). MHC class I or II restriction was analyzed in MAb blocking experiments using anti-HLA-A, B, C (clone G46-2.6) or anti-HLA-DR, anti-HLA-DP or anti-HLA-DQ (clones TU36, HI43 or TU169, respectively) (all from Pharmingen). […] Results were expressed as the mean cpm±SEM of triplicate cultures or stimulation index, which was calculated by dividing the cpm of experimental cultures (means counts of triplicate wells) by the cpm of unstimulated control cultures (mean counts of triplicate wells).

[3] = test system: CD4+ T cell line of RAS patient 43; experiment: Proliferation of patient 43 CD4+ T cell line to ras protein from tumor cell extracts captured on pan-ras MAb RAS 10 and presented by autologous BLCL; type: cell-based, human
[4] = target: T1, human HLA-A2 (Homo sapiens, UniProt P04439, D140Y/D185E/D98H/E176V/E277Q/G131W/G231S/I119V/I121R/I166T/I218V/L300P/L318F/N151K/N90K/P208A/P217A/Q86G/Q94H/R138H/R169H/T345S); experiment: HLA-A2 binding bioassay on T2 cells (flow cytometry); settings: T2 bioassay
T1 construct: The 174CEM.T2 cell line (“T2”), (transport deletion mutant); endogenous in cells; host or cells: 174CEM.T2 (T2) human cell line

[5] = test system: HLA-A2+ peptide-pulsed targets; experiment: Generation and cytotoxicity of ras4-12(V12)-specific CD8+ CTL line from a normal HLA-A2+ donor; type: cell-based, human; settings: wild-type printed as wild-type ras peptide
[6] = test system: T2 cell line as target of CD8+ CTL line of RAS patient 32; experiment: 51Cr-release cytotoxicity of CD8+ CTL line of RAS patient 32 against peptide-pulsed T2 targets; type: cell-based, human; settings: peptide 10 μg/ml, IVS cycle 7 (FIG. 5)
Experimental: FIG. 5. Cytolytic activity by CD8^+ CTL line of RAS patient 32 is peptide-specific. The CD8^+ CTL line of RAS patient 32 (see FIG. 3) was assayed against the T2 cell line as a target, incubated with and without different ras peptides (10 μg/ml), as shown. In parallel, the extent of NK activity was evaluated against K562 cells. Cytotoxicity was determined by ^51Cr-release, and the results expressed at different E/T ratios following IVS cycle 7. Similar results were observed using the second, independently-derived CD8^+ CTL line as described in Table 6.
IVS cycles for evaluation of CD8^+ T cell responses from HLA-A2+Patients. Freshly-thawed PBMC (from ras patients 32 and 33), derived pre-vaccination and post-third vaccination, were enriched in T lymphocytes by passage over nylon wool columns (Robbins Scientific, Sunnyvale, Calif.) and then depleted of CD4^+ T cells by negative selection via panning on anti-CD4 MAb-coated T25 flasks (Applied Immune Sciences, Santa Clara, Calif.). For the first IVS cycle, CD8^+ enriched lymphocytes (5×10^5/well) were cultured in 24-well plates with irradiated, autologous PBMC (5×10^6/well) as APC which had been preincubated for 3 hours with the appropriate mutant ras peptide ([…]) plus human β2-microglobulin (10 μg/ml) (Calbiochem, San Diego, Calif.). […] IL-2 (10 U/ml) was added 3 days later. After an additional 7 days, viable cells (2-5×10^5/well) were re-cultured by weekly stimulation with APC pre-pulsed with peptide/β2-microglobulin, and IL-2 added one day later. After the third or fourth IVS cycle, autologous PBMC were replaced with EBV-transformed, autologous BLCL (5×10^5/well) as APC. […] CTL activity was evaluated from cultures 5 to 6 days after Ag restimulation.
Cytotoxic response. Cytotoxicity was examined by a conventional ^51Cr-release assay, as described (6). Briefly, target cells (i.e. T2, C1R-A2, BLCL, K562) were radiolabeled with 200 μCi of Na2[^51Cr]04 (Amersham) for 60 minutes at 37° C., followed by thorough washing to remove unincorporated isotope. Effectors and targets (1×10^4/well) were incubated in 96-well, U-bottomed plates (Costar) at various effector target (E/T) ratios in the absence and presence of peptide (+/−monoclonal antibody (MAb) directed against CD4, CD8 or HLA-A2 molecules (clone BB7.2 from ATCC)) for up to 6 hours. After incubation, supernatants were collected using a Supernatant Collection System (Skatron, Sterling, Va.) and radioactivity measured in a γ-counter (Packard Instruments, Downers Grove, Ill.). Cytotoxic activity was defined as percent specific release of ^51Cr and determined by the equation: [(experimentalcpm−spontaneouscpm)/maximumcpm−spontaneouscpm)]×100. Results were expressed as the mean±SEM of triplicate cultures. […]

[7] = test system: C1R-A2 targets / autologous EBV-B cells as targets of CD8+ CTL line of patient 29; experiment: 51Cr-release cytotoxicity of CD8+ CTL line of patient 29 against C1R-A2 or autologous EBV-B targets; type: cell-based, human; settings: patient 29 lymphocytes after IVS cycle 7 (FIG. 9A)
Experimental: FIGS. 9A and 9B. Production of a peptide-specific CD8^+ T cell line from post-vaccinated lymphocytes of patient 29. FIG. 9A: A CD8^+ CTL line was established from post-vaccinated PBMC of patient 29 and assayed for peptide specificity against C1R-A2 targets. Cytotoxicity was determined by ^51Cr-release, and the results expressed at different effector/target ratios following IVS cycle 7. FIG. 9B: Using this CD8^+ CTL line, the requirement for HLA-A2 in peptide presentation (by autologous EBV-B cells as targets) was determined in blocking experiments using MAb (clone BB7.2; ascites=1:30 dilution) directed against that molecule (or using an isotype-matched MAb). […] CD4 and CD8 MAbs were as described for FIGS. 8A and 8b. Control lysis in the absence of peptide or in the presence of ras5-14(Gly12) was <3%.
(§1) Cytotoxic response. Cytotoxicity was examined by a conventional ^51Cr-release assay, as described (6). […] After incubation, supernatants were collected using a Supernatant Collection System (Skatron, Sterling, Va.) and radioactivity measured in a γ-counter (Packard Instruments, Downers Grove, Ill.). Cytotoxic activity was defined as percent specific release of ^51Cr and determined by the equation: [(experimentalcpm−spontaneouscpm)/maximumcpm−spontaneouscpm)]×100. Results were expressed as the mean±SEM of triplicate cultures. […]

[8] = test system: SW480 colon carcinoma cell line (HLA-A2+, rasVal12+); experiment: 51Cr-release cytotoxicity of CTL against SW480 colon carcinoma cells; type: cell-based, human
Experimental: FIGS. 10A and 10B. Anti-ras Val12-specific CTL from patient 29 lyse SW480 tumor targets in the absence of exogenous peptide. FIG. 10A: Anti-ras Val12-specific CD8^+ CTL from patient 29 were assayed against the SW480 colon carcinoma cell line (HLA-A2^+, rasVal12+) in the absence of exogenous peptide, with or without IFN-γ pretreatment (250 U/ml for 24 hr) of the target cells. CD8^+ CTL reactive with the […] peptide were used as an irrelevant effector cell population. Cytotoxicity was determined by ^51Cr-release, and the results expressed at different effector/target ratios. FIG. 10B: In parallel to 10A, anti-ras or anti-MART-1-specific CTL were assayed against SW480 (±IFN-γ pretreatment) at an effector/target ratio of 10/1 in the absence or presence of exogenous peptide (5 μg/ml). […] Flow cytometric analysis of SW480 cells for expression of HLA-A2: untreated=65.4% with MFI of 29.8; IFN-γ-pretreated=99.5% with MFI of 349.6. Flow cytometric analysis of SW480 cells for expression of ICAM-1: untreated=16.0% with MFI of 30.3; IFN-γ-pretreated=98.6% with MFI of 181.9.
as §1
Studies were also carried out to determine whether such peptide-induced CD8^+ CTL could recognize a processed form of the corresponding mutant ras protein. […] In contrast to the CD4^+ analysis, which measured lymphoproliferation to soluble protein, the CD8^+ CTL analysis reflected lytic ability against SW480 cells harboring the naturally-occurring mutation in the absence of exogenously added peptide. […]

[9] = Post-Immune culture, peptide 3 μg/ml
[10] = Post-Immune culture, peptide 10 μg/ml
[11] = Post-Immune culture, peptide 30 μg/ml
[12] = Pre-Immune culture, peptide 3 μg/ml
[13] = Pre-Immune culture, peptide 10 μg/ml
[14] = Pre-Immune culture, peptide 30 μg/ml
[15] = Pre-Immune culture, peptide 100 μg/ml

Substance: Lys-Leu-Val-Val-Val-Gly-Ala-Gly-Gly-Val-Gly-Lys-Ser (KLVVVGAGGVGKS) [ras5-17(Gly12)]
Proliferation Response cpm(± SEM) ([1]; Post-Immune culture (post-third vaccination), peptide 100 μg/ml): 640 ± 23 cpm
Proliferation Response SI (stimulation index) [1, 9]: 1.0
Proliferation Response cpm(± SEM) [1, 9]: 694 ± 19 cpm
Proliferation Response SI (stimulation index) [1, 10]: 1.1
Proliferation Response cpm(± SEM) [1, 10]: 725 ± 27 cpm
Proliferation Response SI (stimulation index) [1, 11]: 1.2
Proliferation Response cpm(± SEM) [1, 11]: 819 ± 142 cpm
Proliferation Response SI (stimulation index) ([1]; Post-Immune culture, peptide 100 μg/ml): 1.0
Proliferation Response SI (stimulation index) [1, 12]: 0.9
Proliferation Response cpm(± SEM) [1, 12]: 824 ± 255 cpm
Proliferation Response SI (stimulation index) [1, 13]: 1.1
Proliferation Response cpm(± SEM) [1, 13]: 768 ± 257 cpm
Proliferation Response SI (stimulation index) [1, 14]: 1.0
Proliferation Response cpm(± SEM) [1, 14]: 849 ± 14 cpm
Proliferation Response SI (stimulation index) [1, 15]: 0.9
Proliferation Response cpm(± SEM) [1, 15]: 790 ± 456 cpm
Proliferation, control culture (cpm±SEM) ([1]; T cells+BLCL+peptide 10 μg/ml, IVS cycle 15 (FIG. 2B)): 7,690±383 cpm
Proliferation, control culture (cpm±SEM) ([2]; T cells+EBV-B cells+peptide 3 μg/ml, IVS cycle 4 (FIG. 8B), without peptide 19,256±1926): 18,116±1474 cpm
Peptide-induced proliferation of patient 29 post-vaccination PBMC (in words) ([2]; post-vaccination, following IVS (FIG. 8A)): no proliferative response was detectable
Proliferation Response cpm(± SEM) ([3]; Table 5: peptide 10 μg/ml, RAS 10 coating +, BLCL +): 8,844 ± 753 cpm
Proliferation Response cpm(± SEM) ([3]; peptide 30 μg/ml, wells pre-coated with RAS 10, BLCL as APC): 8,130 ± 314 cpm

Binding to HLA-A2 on T2 cells (in words) [4]: failed to bind to HLA-A2
Substance: ras4-12(G12): proto-ras 9-mer sequence positions 4-12 with Gly at position 12 (YKLVVVGAG)
Generation of peptide-specific CTL line / lysis of peptide-pulsed targets (in words) [5]: No lysis was detectable

Substance: Lys-Leu-Val-Val-Val-Gly-Ala-Val-Gly-Val [ras5-14(Val12)]
Sensitization of T2 targets for lysis (in words) [6]: failed to stimulate lysis
Peptide-specific lysis of C1R-A2 targets (in words) [7]: displayed peptide-specific, cell-mediated lysis
Effect of exogenous peptide on anti-rasVal12 CTL-mediated lysis of SW480 ([8]; peptide 5 μg/ml, E/T 10/1 (FIG. 10B), control printed as wild-type ras peptide): enhanced
Lysis of SW480 by anti-MART CTL in presence of exogenous peptide ([8]; with or without IFN-γ (FIG. 10B)): failed to lyse SW480 target cells
